Values quoted from earlier work, collected in paper PMC12181400, “Leveraging viral genome sequences and machine learning models for identification of potentially selective antiviral agents” (Communications Chemistry, 2025).
Where a name gives a salt, the structure may show the parent alone. Read-outs that look alike come from different tables or passages of the source.

Key:
Conditions in all cases: cited from earlier work
[1] = tested on: cell viability (tox21-are-bla-p1)
[2] = tested on: cell viability (tox21-ar-mda-kb2-luc-agonist-p3)
[3] = tested on: cell viability (tox21-car-antagonist-p1)
[4] = tested on: cell viability (tox21-ar-mda-kb2-luc-antagonist-p2)
[5] = tested on: cell viability (tox21-ap1-agonist-p1)
[6] = tested on: cell viability (tox21-car-agonist-p1)
[7] = curve rank −9 to 9, 0 = inactive, ref NCATS Tox21 public data browser

Structure (SMILES) | tox21-are-bla-p1-viability (curve rank) [1] | tox21-ar-mda-kb2-luc-agonist-p3-viability (curve rank) [2] | tox21-car-antagonist-p1-viability (curve rank) [3] | tox21-ar-mda-kb2-luc-antagonist-p2-viability (curve rank) [4] | tox21-ap1-agonist-p1-viability (curve rank) [5] | tox21-car-agonist-p1-viability (curve rank) [6] | tox21-are-bla-p1-viability (curve rank) [1, 7] | tox21-ar-mda-kb2-luc-agonist-p3-viability (curve rank) [2, 7] | tox21-car-antagonist-p1-viability (curve rank) [3, 7] | tox21-ar-mda-kb2-luc-antagonist-p2-viability (curve rank) [4, 7] | tox21-ap1-agonist-p1-viability (curve rank) [5, 7] | tox21-car-agonist-p1-viability (curve rank) [6, 7]
CC1Cc2ccccc2N1NC(=O)c1ccc(Cl)c(S(N)(=O)=O)c1 (stereo not drawn) [Indapamide] | 0 | 0 | 0 | 0 | 0 | 0 |  |  |  |  |  | 
OC[C@H]1O[C@@H](Oc2ccc(O)cc2)[C@H](O)[C@@H](O)[C@@H]1O [Arbutin] |  |  |  |  |  |  | 0 | 0 | 0 | 0 | 0 | 0
CC[C@@H](CO)NC(=O)[C@@H]1C=C2c3cccc4c3c(cn4C)C[C@H]2N(C)C1 [Methysergide] |  |  |  |  |  |  | 0 | 0 | 0 | 0 | 0 | 0
COc1cc(C(=O)NCc2ccc(OCCN(C)C)cc2)cc(OC)c1OC [Trimethobenzamide hydrochloride] | 0 | 0 | 0 | 0 | 0 | 0 |  |  |  |  |  | 
C[C@H](O)C(=O)Nc1c(I)c(C(=O)NC(CO)CO)c(I)c(C(=O)NC(CO)CO)c1I [Iopamidol] | 0 | 0 | 0 | 0 | 0 | 0 |  |  |  |  |  | 
Nc1nnc(-c2cccc(Cl)c2Cl)c(N)n1 [Lamotrigine] | 0 | 0 | 0 | 0 | 0 | -0.67 |  |  |  |  |  | 
CCN[C@H]1CN(CCCOC)S(=O)(=O)c2sc(S(N)(=O)=O)cc21 [Brinzolamide] | 0 | 0 | 0 | 0 | 0 | 0 |  |  |  |  |  | 
Brc1c(NC2=NCCN2)ccc2nccnc12 [Brimonidine] | 0 | 0 | 0 | 0 | 0 | 0 |  |  |  |  |  | 
O=C(Cn1ccnc1[N+](=O)[O-])NCCO [Etandazole] | 0 | 0 | 0 | 0 | 0 | 0 |  |  |  |  |  | 
O=C1NS(=O)(=O)c2ccccc21 [Saccharin] | 0 | 0 | 0 | 0 | 0 | 0 |  |  |  |  |  | 
CCN(CC)CC1CCCCN1CC(=O)N1c2ccccc2C(=O)Nc2cccnc21 (stereo not drawn) [AF-DX 116] | 0 | 0 | 0 | 0 | 0 | 0 |  |  |  |  |  | 
CC(=O)Nc1nnc(S(N)(=O)=O)s1 [Acetazolamide] | 0 | 0 | 0 | 0 | 0 | 0 |  |  |  |  |  | 
NC(=O)NC(=O)Cc1ccccc1 [Phenacemide] |  |  |  |  |  |  | 0 | 0 | 0 | 0 | 0 | 0
CCN1CCC[C@H]1CNC(=O)c1c(OC)ccc(Br)c1OC [Remoxipride] | 0 | 0 | 0 | 0 | 0 | 0 |  |  |  |  |  | 
CN(C)CCOC(=O)C(c1ccccc1)C1(O)CCCC1 (stereo not drawn) [Cyclopentolate hydrochloride] |  |  |  |  |  |  | 0 | 0 | 0 | 0 | 0 | 0
Clc1cccc(Cl)c1N=C1NCCN1 [Clonidine] | 0 | 0 | 0 | 0 | 0 | 0 |  |  |  |  |  | 
CCC(=O)O[C@]1(C(=O)SCF)[C@H](C)C[C@H]2[C@@H]3C[C@H](F)C4=CC(=O)C=C[C@]4(C)[C@@]3(F)[C@@H](O)C[C@@]21C [Fluticasone propionate] | 0 | 0 | 0 | 0 | 0 | 0.67 |  |  |  |  |  | 
Cc1ccc(S(=O)(=O)NC(=O)NN2CC3CCCC3C2)cc1 (stereo not drawn) [Gliclazide] | 0 | 0 | 0 | 0 | 0 | 0 |  |  |  |  |  | 
CC(=O)NCCCCCC(=O)O [Acexamic acid] |  |  |  |  |  |  | 0 | 0 | 0 | 0 | 0 | 0
CC(Cc1ccccc1)(NC(=O)CN)c1ccccc1 (stereo not drawn) [Remacemide hydrochloride] |  |  |  |  |  |  | 0 | 0 | 0 | 0 | 0 | 0
Nc1nc2ncc(CNc3ccc(C(=O)N[C@@H](CCC(=O)O)C(=O)O)cc3)nc2c(=O)[nH]1 [Folic acid] | 0 | 0 | 0 | 0 | 0 | 0 |  |  |  |  |  | 
CN1C(C(=O)Nc2ccccn2)=C(O)c2ccccc2S1(=O)=O [Piroxicam] | 0 | 0 | 0 | 0 | 0 | 0 |  |  |  |  |  | 
C[C@]12CCC(=O)C=C1CC[C@@H]1[C@@H]2[C@@H](O)C[C@@]2(C)[C@H]1CC[C@]2(O)C(=O)CO [Hydrocortisone] | 0 | 0 | 0 | 0 | 0 | 0 |  |  |  |  |  | 
